# Measurements from patent US20140220112A1, “TRANSFORMATION OF DRUG CYCLODEXTRIN COMPLEX COMPOSITIONS INTO COMPOSITIONS OF MIXTURES OF LIPID VESICLE ENCAPSULATED DRUG AND CYCLODEXTRIN DRUG COMPLEXES” (Zoneone Pharma, Inc., priority 2013, published 2014).
# Where “and” joins values, the source holds several entries; their conditions need not be identical. Equal values may be shown once.
# Legend:
# [1] = Incorporation of maropitant from Cerenia (SBCD) into lyophilized MLV with encapsulated triethylamine sulfate; format: physicochemical; conditions: MLV POPC/Chol/DSPG, 60° C. 30 minutes
# Protocol: Maropitant citrate is used for the prevention of acute vomiting in dogs and cats. The MLV formulation described in example 4 is prepared with 250 mM triethylamine sulfate in place of ammonium sulfate. The formulation is lyophilized to provide a cake consisting of 120 mg sucrose and a 1.2 μmoles total lipid of a liposome with a lipid composition of POPC/Chol/DSPG mole ratio 3/2/0.15 with a higher concentration of triethylamine sulfate on the inside than on the outside. The contents of the 20 mL Cerenia® Injectable Solution vial which contains 10 mg maropitant, 63 mg sulphobutylether-beta-cyclodextrin, 3.3 mg meta-cresol per mL is slowly added to the vial of lyophilized liposomes and the vial is slowly rotated to rehydrate the MLV at room temperature. The milky white mixture is allowed to stand at 60° C. for 30 minutes. The percent of the maropitant that is incorporated into the liposome is about 60% of the total maropitant in the vial. […] Approximately 40% of the drug remains associated with the SBCD. This formulation is suitable for subcutaneous injection to prevent vomiting associated with chemotherapy.
# [2] = Encapsulation of ziprasidone from Geodon (SBCD complex) into ammonium sulfate LUV liposomes, HPLC after purification; format: physicochemical; conditions: 65° C. 30 min; for % ziprasidone entrapped in liposome from suspension of ziprasidone: liquid/liquid system; for % ziprasidone entrapped in liposome from reconstitution of Geodon cake: liquid/solid system
# Protocol: Alternatively, lipids were dissolved in ethanol at a concentration of 500 mM HSPC/Cholesterol/PEG-DSPE: 3/2/0.15 (591 mg/mL total lipid) at 65° C. and the 9 volumes of the trapping agent solution heated to 65° C. was added to the ethanol/lipid solution also at 65° C. and the mixture was vortexed and transferred to a 10 mL thermostatically controlled (65° C.) Lipex Extruder. The LUV were formed by extruding 10 times through polycarbonate membranes having 0.1 um pores. After extrusion the liposomes were cooled on ice. The transmembrane electrochemical gradient was formed by purification of the liposomes by dialysis in dialysis tubing having a molecular weight cut off of 12,000-14,000. The samples are dialyzed against 5 mM HEPES, 10% sucrose pH 6.5 (stirring at 4° C.) at volume that is 100 fold greater than the sample volume. The dialysate was changed after 2 h then 4 more times after 12 h each. The conductivity of the liposome solution was measured and was indistinguishable from the dialysis medium […].
# The HPLC analysis of all other drugs used (such as ziprasidone, ariprazole, voriconazole etc) was performed on the same system as described for analysis of cholesterol. The mobile phase consists of −A=0.1% TFA, B=0.1% TFA/MeOH with a gradient elution starting at 40% B and increasing to 70% B in 7 min with 6 min equilibration back to 40% B. The flow rate is 1.0 mL/min, column temperature is 30 C, 10 μL injection and detection by absorbance at 254 nm. The retention times were as follows: ziprasidone 5.73 min, ariprazole 8.12 min, voriconazole 8.81 min.
# (§1) A portion of the lyophilized cake of GEODON® (Pfizer) was weighed out and dissolved in deionized water. The amount of the active ingredient (ziprasidone) was calculated by multiplying the cake weight by 0.0625 and added to liposomes from a 1 mg/mL solution. In certain experiments the lyophilized cake was reconstituted with the aqueous liposome preparation at defined lipid to drug ratios (liquid/liquid system). In other cases the lyophilized cake was directly rehydrated with the liposome suspension (liquid/solid system). The LUV were diluted with 5 mM Hepes, 10% sucrose pH 6.5. The liposome/drug solution was transferred to a 65° C. bath and swirled every 30 s for the first 3 min and then swirled every 5 min over a total heating time of 30 min. After heating for 30 min all samples were placed on ice for 15 min. the loaded liposomes were vortexed and 100 μL of sample was kept as the “before column” and the rest purified by ion exchange chromatography and gel filtration chromatography. Amberlite IRA-67 anion exchange resin was prepared by washing with 1N NaOH, followed by 3 washes with ddH2O and 3 washes with 3N HCl. The resin was exhaustively washed with dH2O until the pH of the supernatant was neutral. The SBCD was removed by adding 70 mg of resin to the eppendorf containing the liposomes and mixed well. The LUV solution was then purified by gel filtration chromatography (Sephadex G25) to remove residual extraliposomal drug. The turbid liposome fraction was collected and analyzed by HPLC.
# [3] = Loading of hydroxypropyl cyclodextrin solubilized SN-38 into LUV containing acetate-PEI salt; format: physicochemical; conditions: LUV 20 mM total lipid, 12 hours at room temperature
# Protocol: Lipids are dissolved in ethanol at a concentration of 500 mM POPC/Cholesterol/PEG-DSPE: 3/2/0.15 (591 mg/mL total lipid) at 65° C. and the 9 volumes of the trapping agent solution, polyethyleneimine (PEI) MW 1300 titrated to pH 7.4 with glacial acetic acid to form the acetate polyethyleneimine salt, is heated to 65° C. then added to the ethanol/lipid solution also at 65° C. This mixture is vortexed and transferred to a 10 mL thermostatically controlled (65° C.) Lipex Extruder. The LUV are formed by extruding 10 times through polycarbonate membranes having 0.1 um pores. After extrusion, the LUV are cooled on ice. A transmembrane electrochemical gradient is formed by placing the liposomes in dialysis tubing having a molecular weight cut off of 12,000-14,000. The samples are dialyzed against 5 mM HEPES, 10% sucrose pH 6.5 (stirring at 4° C.) at volume that is 100-fold greater than the liposome sample volume. The dialysate is changed after 2 h then 4 more times after 12 h each. The conductivity of the liposome solution was measured and was indistinguishable from the dialysis medium ˜40 μS/cm.
# The LUV (20 mM total lipid containing a greater concentration of acetate-PEI salt on the inside than on the outside) are mixed with the hydroxypropyl cyclodextrin solubilized SN-38 (24 mg/mL hydroxylpropylcyclodextrin and 2 mg/mL SN-38) and allowed to incubate for 12 hours at room temperature. […]
# [4] = Encapsulation of aripiprazole from Abilify (SBECD solution) into LUV, liquid/liquid protocol; format: physicochemical; conditions: LUV HSPC/Cholesterol/PEG-DSPE
# Protocol: as §1
# ABILIFY® Injection is available in single-dose vials as a ready-to-use, 9.75 mg/1.3 mL (7.5 mg/mL) clear, colorless, sterile, aqueous solution for intramuscular use only. […] The active ingredient in Abilify® (Bristol-Myers), aripiprazole (7.5 mg/mL) was introduced to the LUV (HSPC/Cholesterol/PEG-DSPE: 3/2/0.15 mole ratio) at a drug to total lipid ratio of 50 g drug/mol HSPC (drug to total lipid ratio (wt/wt) of 0.12) or 100 g/mol (0.24 wt/wt) or 200 g/mol (0.48 wt/wt). […]
# [5] = cited from earlier work
# [6] = Loading of carfilzomib from the lyophilized Kyprolis vial into the core of added LUV; format: physicochemical
# Protocol: A 30 mL preparation of LUVs composed of HSPC/Cholesterol/PEG2000-DSPE at lipid concentration of 15 mM lipid (circa 300 mg lipid) is prepared by the extrusion process through 100 nm polycarbonate membranes in a 250 mM ammonium sulfate solution to yield a 100 nm diameter LUV suspension of encapsulated ammonium sulfate. The LUV are dialyzed against 500 volumes of 0.15 M NaCl to remove non-encapsulated ammonium sulfate. The liposome suspension is then passed through a 0.2 micron sterile membrane into a sterile tube. The liposome solution (29 mL) is added aseptically to the vial containing 60 mg of carfilzomib at room temperature. The vial is gently mixed not shaken, for about 1 minute, or until the cake or powder is completely solubilized. The rehydrated solid is incubated for 40 minutes at 37° C. The carfilzomib is substantially loaded (>60%) into the core of the liposome at the end of the incubation period. The 100 nm diameter of the liposomes is not altered by this rehydration incubation process. The temperature of the vial is then reduced to 4° C. until the mixture of CD, drug-loaded liposome are injected into the subject.
# The pharmacokinetic behavior of preparation of carfilzomib can be easily modulated by adjusting the amount of LUV containing ammonium sulfate or triethylamine sulfate that are added to the vial of Kyprolis®. […]
# [7] = input drug-to-lipid 100 ug/umol
# [8] = input drug-to-lipid 200 ug/umol
smiles,measurement,setting,value
COc1ccc(C(C)(C)C)cc1CN[C@H]1C2CCN(CC2)[C@H]1C(c1ccccc1)c1ccccc1 [maropitant],percent of the drug remaining associated with the SBCD,[1],Approximately 40%
same,"percent of the maropitant incorporated into the liposome, of total maropitant in the vial",[1],about 60%
same,resulting drug to lipid ratio,[1],about 140 grams/mole lipid
O=C1Cc2cc(CCN3CCN(c4nsc5ccccc45)CC3)c(Cl)cc2N1 [ziprasidone],% ziprasidone entrapped in liposome from suspension of ziprasidone,[2]; input drug-to-lipid 50 ug/umol,87.92 ± 2.35%
same,% ziprasidone entrapped in liposome from reconstitution of Geodon cake,[2]; input drug-to-lipid 50 ug/umol,90.42 ± 2.91%
same,% ziprasidone entrapped in liposome from reconstitution of Geodon cake,"[2]; input drug-to-lipid 50 ug/umol, listed as Geodon",90.4%
same,% ziprasidone entrapped in liposome from suspension of ziprasidone,[2]; [7],84.24 ± 3.14%
same,% ziprasidone entrapped in liposome from reconstitution of Geodon cake,[2]; [7],75.50 ± 2.91%
same,% ziprasidone entrapped in liposome from reconstitution of Geodon cake,"[2]; input drug-to-lipid 100 ug/umol, listed as Geodon",75.5%
same,% ziprasidone entrapped in liposome from suspension of ziprasidone,[2]; [8],80.38 ± 3.61%
same,% ziprasidone entrapped in liposome from suspension of ziprasidone,"[2]; input drug-to-lipid 200 ug/umol, listed as Geodon",80.4%
same,% ziprasidone entrapped in liposome from reconstitution of Geodon cake,[2]; [8],62.68 ± 3.27%
same,% ziprasidone entrapped in liposome from reconstitution of Geodon cake,[2]; input drug-to-lipid 400 ug/umol,67.40 ± 3.88%
same,% ziprasidone entrapped in liposome from reconstitution of Geodon cake,"[2]; input drug-to-lipid 400 ug/umol, listed as Geodon",67.4%
same,% ziprasidone entrapped in liposome from reconstitution of Geodon cake,[2]; input drug-to-lipid 800 ug/umol,41.38 ± 0.81%
"CCc1c2c(nc3ccc(O)cc13)-c1cc3c(c(=O)n1C2)COC(=O)[C@]3(O)CC [SN-38, 7-Ethyl-10-Hydroxy-Camptothecin]","SN-38 transferred into the liposome, % of the added SN-38",[3],approximately 50%
O=C1CCc2ccc(OCCCCN3CCN(c4cccc(Cl)c4Cl)CC3)cc2N1 [aripiprazole],% aripiprazole entrapped in liposome when transferred from Abilify,[4]; input drug-to-lipid 50 ug/umol,60.16 ± 3.57%
same,% aripiprazole entrapped in liposome when transferred from Abilify,[4]; [7],48.4% and 48.36 ± 3.78%
same,% aripiprazole entrapped in liposome when transferred from Abilify,[4]; [8],43.2% and 43.22 ± 2.09%
CC(C)C[C@H](NC(=O)[C@H](CCc1ccccc1)NC(=O)CN1CCOCC1)C(=O)N[C@@H](Cc1ccccc1)C(=O)N[C@@H](CC(C)C)C(=O)[C@@]1(C)CO1 [carfilzomib],solubility in water,[5],less than 10 micrograms/mL
same,carfilzomib loaded into the core of the liposome,"[6]; Kyprolis vial 60 mg + 29 mL LUV (circa 300 mg lipid), ammonium sulfate, 40 minutes at 37° C.",> 60%
same,"amount of carfilzomib that remains complexed to the CD, fraction of total amount in the vial",[6]; liposomes added decreased from 300 mg to 200 mg of total lipid,about one-half
